≈ marks a conversion by molar mass, not a printed value. Entries after “also recorded” stand apart in the source; their conditions may differ. Positions of bridges follow the written chain, without caps; N, C: chain ends. Non-standard residues stand in square brackets, D forms with d. Residues, ends and D or L forms follow the SMILES beside them. S5 = C=CCCC[C@](C)(N)C(=O)O
Key:
[1] = tested on: U87 MG; test: Apoptosis assay (Annexin V/PI, flow cytometry); type: cell-based, human; set-up: LR / UR / LR+UR: unit not given here; details: for LR+UR: total apoptosis
Description: Fluorescent probes were used to detect normal viable cells, apoptotic cells, and necrotic cells by double labeling of cells, and the morphological characteristics of the apoptotic cells were explored. A Petri dish with 8–90% confluence was taken from the incubator. Tumor cells were collected, and the cells were counted under the microscope through the cell slide. A cell suspension of the appropriate concentration was prepared. Different concentrations of peptide samples were added according to the experimental group. Three compound wells were set up in each group; the control group was set up without peptides, and the blank group was set up without cells. […] Then, 2 μL of PI solution was added before placing it on the machine, and one tube without dye was used as a negative control. On-machine assays were performed with flow cytometry. […] Total apoptosis = LR region + UR region.

[2] = circular dichroism; details: phosphate buffer (PB); pH 7.2; ns °C; 10-50 (printed mmol/L, probably uM)
[3] = tested on: tumor cells; test: Cytotoxicity / cell viability assay (CCK-8), cell line not given; type: cell-based, human
Description: Human colon cancer cell lines HCT116 p53^+/+, HCT116 p53^−/−, U87 MG, and U251 were maintained in McCoy’s 5A Medium supplemented with 10% heat-inactivated FCS and 1% penicillin–streptomycin at 37°C, 5% CO2, and under complete humidification conditions. The cells (3×10^3 cells/well) were inoculated in 96-well plates and treated with different concentrations of polypeptides for 72 h. The absorbance at 450 nm was then measured using the CCK-8 Kit, and the percentage of cell survival was calculated based on the ratio of the sample well to the reference well A450.

[4] = tested on: U87 MG; details: 72 h
[5] = Circular dichroism, degree of helicity; type: physicochemical; details: CD, PB pH 7.2, 10–50 mmol/L peptide, ambient temperature, 1-mm path length, 185–255 nm
Description: The staple peptides were soluble in PB with a pH of 7.2 at a concentration of 10–50 mmol/L. CD experiments were performed using a Jasco J-715 Spectropolarimeter at ambient temperature. A quartz cuvette with a 1-mm path length was used for the spectrum collection (wavelength, 185–255 nm; step resolution, 0.0001 mm; speed, 1.2 μm/h; accumulations, 6; and bandwidth, 0.0001 mm). We calculated the helicity of each peptide using Eq.

[6] = tested on: U251; test: Apoptosis assay (Annexin V/PI, flow cytometry); type: cell-based, human; details: U251, 20 μM, 36 h (legend; method 24 h), mean
[7] = tested on: HCT116 p53^−/−; details: 72 h
[8] = tested on: U251; details: 72 h
[9] = tested on: U251; test: Apoptosis assay (Annexin V/PI, flow cytometry); type: cell-based, human; set-up: LR / UR / LR+UR: unit not given here; details: for LR+UR: total apoptosis
Description: Fluorescent probes were used to detect normal viable cells, apoptotic cells, and necrotic cells by double labeling of cells, and the morphological characteristics of the apoptotic cells were explored. A Petri dish with 8–90% confluence was taken from the incubator. Tumor cells were collected, and the cells were counted under the microscope through the cell slide. A cell suspension of the appropriate concentration was prepared. Different concentrations of peptide samples were added according to the experimental group. Three compound wells were set up in each group; the control group was set up without peptides, and the blank group was set up without cells. Then, 300 μL of Binding Buffer was added after 24 h of dosing, and 2 μL of Annexin V was added to each tube, pipetted to mix it well, and then incubated at room temperature in the dark for 15 min. Then, 2 μL of PI solution was added before placing it on the machine, and one tube without dye was used as a negative control. On-machine assays were performed with flow cytometry. […] Total apoptosis = LR region + UR region.

[10] = tested on: HCT116 p53^+/+; details: 72 h
[11] = tested on: MDM2; set-up: method as in 2 sources, one per row (each row's own in cited_ref): ref Zhan and Lu, 2011; Brown et al., 2013; Wade et al., 2013 ||| ref Zhan et al., 2012a; Zhan et al., 2012b; Li et al., 2021; details: in words, surface plasmon resonance and fluorescence polarization, ref Zhan et al., 2012a, 2012b, Li et al., 2021; cited from earlier work
[12] = tested on: MDMX; set-up: method as in 2 sources, one per row (each row's own in cited_ref): ref Zhan and Lu, 2011; Brown et al., 2013; Wade et al., 2013 ||| ref Zhan et al., 2012a; Zhan et al., 2012b; Li et al., 2021; details: in words, surface plasmon resonance and fluorescence polarization, ref Zhan et al., 2012a, 2012b, Li et al., 2021; cited from earlier work
[13] = 20 μM, 36 h (legend; method 24 h), Annexin V/PI, mean
[14] = U251, 5 μM, sample 9 (replicate 1)
[15] = U251, 5 μM, sample 10 (replicate 2)
[16] = U251, 10 μM, sample 11 (replicate 1)
[17] = U251, 10 μM, sample 12 (replicate 2)
[18] = U251, 20 μM, sample 13 (replicate 1)
[19] = U251, 20 μM, sample 14 (replicate 2)

CSCC[C@H](NC(=O)[C@H](CC(C)C)NC(=O)[C@]1(C)CCCC=CCCC[C@](C)(NC(=O)[C@H](CC(C)C)NC(=O)[C@H](Cc2ccccc2)NC(=O)[C@@H](NC(=O)[C@H](CC(C)C)NC(=O)[C@H](CCCCN)NC(C)=O)[C@@H](C)O)C(=O)N[C@@H](Cc2ccc(O)cc2)C(=O)N[C@@H](Cc2c[nH]c3ccccc23)C(=O)N[C@@H](C)C(=O)N1)C(=O)N[C@@H](CCC(N)=O)C(=O)N[C@@H](CCCCN)C(N)=O [SM3-4] (Ac-KLTFL[S5]YWA[S5]LMQK-NH2; staple 6-10)
LR ([1]; 5 μM, sample 1 (replicate 1)): 1.25 | UR ([1]; 5 μM, sample 1 (replicate 1)): 3.07 | LR+UR ([1]; 5 μM, sample 1 (replicate 1)): 4.32 | LR ([1]; 5 μM, sample 2 (replicate 2)): 1.04 | UR ([1]; 5 μM, sample 2 (replicate 2)): 3.27 | LR+UR ([1]; 5 μM, sample 2 (replicate 2)): 4.31 | LR ([1]; 10 μM, sample 3 (replicate 1)): 1.11 | UR ([1]; 10 μM, sample 3 (replicate 1)): 6.12 | LR+UR ([1]; 10 μM, sample 3 (replicate 1)): 7.23 | LR ([1]; 10 μM, sample 4 (replicate 2)): 2.02 | UR ([1]; 10 μM, sample 4 (replicate 2)): 3.16 | LR+UR ([1]; 10 μM, sample 4 (replicate 2)): 5.18 | LR: apoptotic cells [1, 13]: 29.91% | UR: dead cells [1, 13]: 42.285% | LR ([1]; 20 μM, sample 5 (replicate 1)): 26.96 | UR ([1]; 20 μM, sample 5 (replicate 1)): 37.58 | LR+UR ([1]; 20 μM, sample 5 (replicate 1)): 64.54 | LR ([1]; 20 μM, sample 6 (replicate 2)): 32.86 | UR ([1]; 20 μM, sample 6 (replicate 2)): 46.99 | LR+UR ([1]; 20 μM, sample 6 (replicate 2)): 79.85 | apoptotic effect (in words) ([1]; 5, 10 and 20 μM): significant apoptotic effect | helicity [2]: 29% | anti-proliferative / tumor suppressive activity (in words) ([3]; HCT116 p53^+/+, HCT116 p53−/−, U87 and U251 cell viability experiments, versus template straight-chain peptide): significantly improved; also recorded: strongest anti-proliferative activity | concentration at which in vitro anti-tumor activity was exhibited ([3]; compared to linear peptide M3-1, cell line not named): 25 µM | IC50 [4]: 7.84 µM | minimum inhibitory concentration [4]: 8 µM (≈ 14.7 µg/mL) | helicity [5]: 28.96% | LR: apoptotic cells [6]: 5.885% | UR: dead cells [6]: 11.23% | IC50 [7]: 33.2 µM | IC50 [8]: 14.7 µM | minimum inhibitory concentration [8]: 16 µM (≈ 29.3 µg/mL) | LR [9, 14]: 0.89 | UR [9, 14]: 2.73 | LR+UR [9, 14]: 3.62 | LR [9, 15]: 0.47 | UR [9, 15]: 1.92 | LR+UR [9, 15]: 2.39 | LR [9, 16]: 1.47 | UR [9, 16]: 1.92 | LR+UR [9, 16]: 3.39 | LR [9, 17]: 1.12 | UR [9, 17]: 1.94 | LR+UR [9, 17]: 3.06 | LR [9, 18]: 6.85 | UR [9, 18]: 8.8 | LR+UR [9, 18]: 15.65 | LR [9, 19]: 4.92 | UR [9, 19]: 13.66 | LR+UR [9, 19]: 18.58 | apoptotic effect (in words) ([9]; U251, 5, 10 and 20 μM): significant apoptotic effect | IC50 [10]: 77.5 µM

LTFLEYWAQLMQ [PMI-M3]
binding to MDM2 [11]: binds well | binding to MDMX [12]: binds well

— article PMC11190158, “Study on the design, synthesis, and activity of anti-tumor staple peptides targeting MDM2/MDMX” (Frontiers in Chemistry, 2024)
